In one series the test system is 92.1 uveal melanoma. The series is described as follows: Resazurin-based viability assay, 92.1 uveal melanoma cells. Format: cell-based. On the procedure:
(§1) Following drug treatment for 96 or 120 hours, cell viability and proliferation were determined using a resazurin-based viability assay. Briefly, cells were incubated with a resazurin-based solution and color change was detected by absorbance with a spectrophotometer and used as a readout of cell viability. Data presented as mean of 3 independent replicates and relative to PBS-treated cells (control).
Following drug treatment for 96 or 120 hours, cell viability and proliferation were determined using a resazurin-based viability assay. Briefly, cells were incubated with a resazurin-based solution and color change was detected by absorbance with a spectrophotometer and used as a readout of cell viability. Data presented as mean of 3 independent replicates and relative to PBS-treated cells (control) (FIG. 6).
Following drug treatment for 96 or 120 hours, cell viability and proliferation were determined using a resazurin-based viability assay. Data presented as mean of 3 independent replicates and relative to PBS-treated cells (control) (FIG. 8).
as §1

Series [1] deals with MIAPACA pancreatic ductal adenocarcinoma cells. As to the kind of experiment: Resazurin-based viability assay, MIAPACA cells. The format is cell-based. Conditions: Homo sapiens, MIA PaCa-2, WT, 96 or 120 hours, Table 4. On the procedure: as §1, with “92.1 uveal melanoma and MIAPACA pancreatic ductal adenocarcinoma cells were seeded at low cell density in 96-well plates and treated with increasing concentrations of Compound (A1) or Compound (A2) as indicated. Following” for “Following”

The next series has as its system 92.1 cells. The series is described as follows: Annexin V flow cytometry apoptosis assay, 92.1 cells. To be noted: 92.1 and MIAPACA cells, FIG. 2. Format: cell-based. As to the method: 92.1 and MIAPACA cells were seeded in 96-well plates (5000 cells per well) and treated with increasing concentrations of Compound (A1), Compound (A2), and a fixed dose of Staurosporine (100 nM, positive control) as indicated. Following drug treatment for 96, cells were subjected to fluorescence-activated flow cytometry using an Annexin V antibody conjugated to a fluorescent dye. Data presented as mean of 3 independent replicates.
92.1 cells were seeded in 96-well plates (5000 cells per well) and treated with increasing concentrations of Compound (A1), 3207-(B1) (Isotype control), G4-(B1), and G1-(B1) as indicated. Following drug treatment for 96, cells were subjected to fluorescence-activated flow cytometry using an Annexin V antibody conjugated to a fluorescent dye. Data presented as mean of 3 independent replicates.

The subject of another series is GNAQ/11. As to the kind of experiment: IP1 levels by TR-FRET in 92.1 uveal melanoma cells. The format is cell-based. Conditions: 92.1 cells, overnight treatment, FIG. 3A. As to the method: (§2) 92.1 uveal melanoma were treated with increasing concentrations of Compound (A1) or Compound (A2) as indicated. Following drug treatment overnight, cells were processed for determination of IP1 levels using TR-FRET (time-resolved fluorescent resonance energy transfer) or protein levels by western-blotting.
92.1 uveal melanoma were treated with DMSO, Compound (A1) (8 nM) and increasing concentrations of Isotype-(B1), anti-PMEL17-(B1) and anti-PMEL17-(B2) ADCs as indicated. Following drug treatment for 2 days, cells were processed for determination of IP1 levels using TR-FRET (time-resolved fluorescent resonance energy transfer). IP1 levels (nM) are presented as mean of 3 independent replicates.
Background: In TR-FRET formats the signal depends on donor and acceptor labels being close together.

A further series has as its system ERK signaling. The series is described as follows: Western-blotting of 92.1 cells, ERK signaling. Conditions: FIG. 3C. Format: cell-based. On the procedure: as §2
A short description of series [2]: Plasma stability of Compound (A1) in mouse, rat, monkey and human plasma compared to buffer. The format is in vitro ADME. To be noted: over 24 h, FIG. 4A-4B. On the procedure: The plasma stability of Compound (A1) was investigated in mouse, rat, monkey and human plasma and compared to buffer. Both disappearance of Compound (A1) (FIG. 4A) as well as appearance of the ring-opened form of Compound (A1) having the structure of Compound (A4)
[drawing 153] (FIG. 4B) were monitored over 24 h.

A short description of series [3]: PK of Compound (A1) after intravenous dosing in mouse. The format is in vivo. Conditions: for Vd: read-out: Vss. The source says:
Table 5 summarizing all PK values is shown below.

The nature of series [4]: Stability in buffer at pH 5.6 and in lysosomes. To be noted: buffer pH 5.6, lysosomes, 4 h, FIG. 5D. The format is in vitro ADME. As to the method: In vitro stability of Compound (A2) was tested in plasma and blood from different species (FIG. 5A). […]
Series [5] concerns Human Platelet Rich Plasma (PRP). Conditions: human PRP, 0.1, 1 and 150 nM, 4, 16 or 24 h, TRAP6 32 uM, FIG. 11.
Method: Platelet aggregation was then measured following treatment with Thrombin Receptor Activating Peptide 6 (TRAP6) at 32 uM.
The test system of series [6] is 92.1-luciferase subcutaneous xenografts. The series is described as follows: 92.1-luciferase subcutaneous xenograft tumor growth in female nude mice. The format is in vivo. To be noted: 7.5 mg/kg single dose i.v., FIG. 16. As to the method:
Treatment (single dose i.v. injection) was performed 17 days post tumor inoculation. Values are mean±SEM; sample size, (n=5-12 mice per group). Initial tumor volume at day 0 was approximately 200-250 mm^3.
Treatments (single dose i.v. injection) were performed 17 days post tumor inoculation. Values represent mean±SEM; sample size, (n=5-6 mice per group). Initial tumor volume at day 0 was approximately 300-325 mm^3. (FIG. 16).
Treatment (single dose i.v. injection) was performed 14-17 days post tumor inoculation. Values are mean±SEM; sample size, (n=5-12 mice per group). Initial tumor volume at day 0 was approximately 200-250 mm3.

Series [7] can be described thus: Exposure of ADC formats in an in vivo efficacy study and payload ring-opening on the antibody. Further details: species or system mice. Conditions: formats of G1-(B1), in vivo efficacy study, FIG. 14D. The source says:
[drawing 156] (filled circles) while being conjugated to the antibody was shown in vivo in mice (FIG. 14C). […] From comparing the PK of the non-targeted 3207-ADCs (FIG. 14E) one can deduce that the Fc-silencing has a significant effect on lowering the clearance of the DAR4 format.

Like-named read-outs stand apart in the source and are kept apart here. Starred links: 1 amine or outer side, 2 acyl side, 3 side chain; linkers in the order of their positions; H or OH if unused. Positions of bridges follow the written chain, without caps; N, C: chain ends. Non-standard residues stand in square brackets, D forms with d. Residues, ends and D or L forms follow the SMILES beside them. *: point of attachment. Leu(3R-OH,Nα-propionyl) = CCC(=O)N[C@H](C(=O)*)[C@H](O)C(C)C; X1 = CC(C)[C@@H](O[*:3])[C@H](N[*:1])C(=O)[*:2]; NMeT = CN[C@H](C(=O)O)[C@@H](C)O; dPhLac = O=C(O)[C@H](O)Cc1ccccc1; NMeA = CN[C@@H](C)C(=O)O; NMeDha = C=C(NC)C(=O)O Where only a bound is given, the exact number is not on record here.

Broadly, the GI50 is the concentration at which growth is held to half of that of the control. As usually defined, the AUC(0-inf) is total exposure, with the tail of the curve extrapolated. In general, Cmax refers to the peak of the concentration-time curve.

Turning to `C=C1C(=O)N[C@@H](C)C(=O)N(C)[C@@H](C)C(=O)N[C@@H]([C@H](OC(=O)[C@@H](NC(=O)CC)[C@H](O)C(C)C)C(C)C)C(=O)N(C)[C@@H]([C@@H](C)OC)C(=O)O[C@H](C(C)C)[C@H](NC(C)=O)C(=O)O[C@H](Cc2ccccc2)C(=O)N1C` [Compound (A1), (R)-1-((3S,6S,9S,12S,18R,21S,22R)-21-acetamido-18-benzyl-22-isopropyl-3-((R)-1-methoxyethyl)-4,9,10,12,16-pentamethyl-15-methylene-2,5,8,11,14,17,20-heptaoxo-1,19-dioxa-4,7,10,13,16-pentaazacyclodocosan-6-yl)-2-methylpropyl (2S,3R)-3-hydroxy-4-methyl-2-propionamidopentanoate] (Ac-[X1][dPhLac][NMeDha]A[NMeA][X1](Leu(3R-OH,Nα-propionyl))[NMeT](Me); ester 1-C), the GI50 in the series with 92.1 uveal melanoma (92.1, GNAQ^Q209L, 96 or 120 hours, Table 4, read-out: GI50) is 0.18 nM; in the series with 92.1 uveal melanoma (92.1 GNAQ^Q209L, Table 1, read-out: GI50 (nM) 92.1GNAQ^Q209L), 0.467 nM; in series [1], greater than 10000 nM. Moreover, the anti-UM activity result in the series on 92.1 uveal melanoma (92.1 vs MIAPACA, FIG. 1) is given as “potent target-dependent anti-UM activity”. Besides, the “apoptosis (Annexin V)” value in the series on 92.1 cells is “induced apoptosis in UM cells in GNAQ/11 dependent manner”. Besides, the IP1 levels entry in the series on GNAQ/11 is listed as “reduced IP1 levels”. In addition, the “ERK signaling (immunoblots)” value in the series on ERK signaling was “reduced ERK signaling”. Besides, in [2], the “transformation of Compound (A1) to ring-opened form in plasma” value is listed as “slightly faster in human plasma”. Also, the “AUCinf/D (nM*h/(mg/kg))” value in series [3] (0.2 mg/kg) is listed as 82 nM*h/(mg/kg); in series [3] (0.4 mg/kg) it was 118 nM*h/(mg/kg); in series [3] (0.8 mg/kg), 171 nM*h/(mg/kg). In addition, the entries for the “C0/D (nM/(mg/kg))” value in series [3] (0.2 mg/kg), in series [3] (0.4 mg/kg) and in series [3] (0.8 mg/kg) were 217 nM/(mg/kg), 270 nM/(mg/kg) and 475 nM/(mg/kg), respectively. In addition, the “Cmax/D (nM/(mg/kg))” value in series [3] (0.2 mg/kg) is listed as 156 nM/(mg/kg); in series [3] (0.4 mg/kg), 208 nM/(mg/kg); in series [3] (0.8 mg/kg), 300 nM/(mg/kg). The exposure with dose result in series [3] (0.2-0.8 mg/kg) was “slightly over-proportional increase of exposure with dose”. In addition, the clearance entry in series [3] (FIG. 4D) is “very high clearance”; in series [3] (in vivo, 0.2 mg/kg, read-out: CL) it was 204 mL/min/kg; in [3] (in vivo, 0.4 mg/kg, read-out: CL), 141 mL/min/kg; in series [3] (in vivo, 0.8 mg/kg, read-out: CL), 97 mL/min/kg. In addition, the volume of distribution result in [3] (FIG. 4D) is “moderate to high volume of distribution”. Besides, the total exposure AUC(0-inf) in series [3] (in vivo, 0.2 mg/kg) came to 0.016 µM·h; in series [3] (in vivo, 0.4 mg/kg), 0.047 µM·h; in series [3] (in vivo, 0.8 mg/kg), 0.137 µM·h. For the same molecule, the C0 in [3] (in vivo, 0.2 mg/kg) was determined as 43 nM; in [3] (in vivo, 0.4 mg/kg), 108 nM; in series [3] (in vivo, 0.8 mg/kg), 380 nM. Besides, the Cmax is 31 nM in series [3] (in vivo, 0.2 mg/kg); 83 nM in series [3] (in vivo, 0.4 mg/kg); 240 nM in [3] (in vivo, 0.8 mg/kg). Also, the Vd in series [3] (in vivo, 0.2 mg/kg) was determined as 8.6 L/kg; in series [3] (in vivo, 0.4 mg/kg), 4.9 L/kg; in series [3] (in vivo, 0.8 mg/kg), 4.6 L/kg. Further, in series [4], the “stability in buffer and lysosomes” value was “stable in buffer at pH 5.6 and in lysosomes over 4 h”. Further, in series [5], the “platelet aggregation after TRAP6” value was “induced platelet aggregation”.

B1: G1-E152C-DAR2-(B1) (conjugate)
heavy: QVQLVQSGAEVKKPGSSVKVSCKASGGTFSDYAITWVRQAPGQGLEWMGGIIPIFGTANYAQKFQGRVTITADESTSTAYMELSSLRSEDTAVYYCAREGGLLTDISYSRYWFAYWGQGTLVTVSS
light: DIELTQPPSVSVSPGQTASITCSGDALRDKFVYWYQQKPGQAPVLVIYDDNNRPSGIPERFSGSNSGNTATLTISGTQAEDEADYYCQSWDHSYSLVVFGGGTKLTVLGQPKAAPSVTLFPPSSEELQANKATLVCLISDFYPGAVTVAWKADSSPVKAGVETTTPSKQSNNKYAASSYLSLTPEQWKSHRSYSCQVTHEGSTVEKTVAPTECS
modifications: left off: a dimerising Fc or GST
Take B1: in the series on 92.1 uveal melanoma (92.1, Table 10, read-out: GI50), the GI50 was 0.365 nM. In addition, the antitumor activity entry in series [6] is recorded as “comparable antitumor activity”. Besides, the “clearance / exposure of ADC formats” value in series [7] is on record as “lowest clearance”.

The values above are taken from US11779649B2, “Antibodies to PMEL17 and conjugates thereof” (Novartis AG, priority 2018, dated 2023).
